According to US20240366564A1, “Use of Chlorophyll Derivatives for the Treatment of SARS-CoV-2 Infection” (priority 2021, published 2024):

How the values were obtained:
[1] = test system: SARS-CoV-2 USA-WA1/2020 virus; format: cell-based
[2] = test system: SARS-CoV-2 alpha variant (B.1.1.7 lineage); format: cell-based

C=Cc1c(C)c2cc3nc(c4c5[nH]c(cc6nc(cc1[nH]2)C(C)=C6CC)c(C)c5C(=O)[C@@H]4C(=O)OC)[C@@H](CCC(=O)O)[C@@H]3C [Pheophorbide A]
inhibition of SARS-CoV-2 infection, summary of FIGS. 5-10 [1]: inhibits SARS-CoV-2 infection in a dose-dependent manner | effect of photoactivation on inhibition of infection [2]: enhanced with photoactivation | inhibition of SARS-CoV-2 infection in culture [2]: significantly inhibits
